Measured values taken from patent US10377717B2, “Farnesoid X receptor agonists and uses thereof” (Metacrine, Inc., priority 2015, dated 2019).

Target: hFXR (Homo sapiens (Human), UniProt Q96RI1)
Test: In Vitro FXR Assay (TK), luciferase reporter in transfected CV-1 cells
Assay type: cell-based
Details: TK-ECRE-luc reporter, hFXR/hRXR, 18 hrs, maximum efficacy <25% of Fexaramine control classified as '+'
Experimental: CV-1 cells were seeded at a density of 2,000,000 cells in a T175 flask with DMEM+10% charcoal double-stripped FBS and incubated at 37° C. in 5% CO2 for 18 h (O/N).
After 18 h of incubation, the medium in the T175 flask was changed with fresh DMEM+10% charcoal super-stripped serum. In a polypropylene tube, 2500 μL OptiMEM (Life Technologies, Cat #31985-062) was combined with expression plasmids for hFXR, hRXR, TK-ECRE-luc and pCMX-YFP. The tube was then briefly vortexed and incubated at room temperature for 5 minutes. Transfection reagent (X-tremeGENE HP from Roche, Cat #06 366 236 001) was added to the OptiMEM/plasmid mixture vortexed and incubated at room temperature for 20 minutes. Following incubation, the transfection reagent/DNA mixture complex was added to cells in the T175 flask and the cells were incubated at 37° C. in 5% CO2 for 18 h (O/N).
Compounds were serially diluted in DMSO and added to transfected CV-1 cells. The cells were then incubated for 18 hrs. The next day cells were lysed and examined for luminescence.

Chain of hFXR (Q96RI1 whole entry): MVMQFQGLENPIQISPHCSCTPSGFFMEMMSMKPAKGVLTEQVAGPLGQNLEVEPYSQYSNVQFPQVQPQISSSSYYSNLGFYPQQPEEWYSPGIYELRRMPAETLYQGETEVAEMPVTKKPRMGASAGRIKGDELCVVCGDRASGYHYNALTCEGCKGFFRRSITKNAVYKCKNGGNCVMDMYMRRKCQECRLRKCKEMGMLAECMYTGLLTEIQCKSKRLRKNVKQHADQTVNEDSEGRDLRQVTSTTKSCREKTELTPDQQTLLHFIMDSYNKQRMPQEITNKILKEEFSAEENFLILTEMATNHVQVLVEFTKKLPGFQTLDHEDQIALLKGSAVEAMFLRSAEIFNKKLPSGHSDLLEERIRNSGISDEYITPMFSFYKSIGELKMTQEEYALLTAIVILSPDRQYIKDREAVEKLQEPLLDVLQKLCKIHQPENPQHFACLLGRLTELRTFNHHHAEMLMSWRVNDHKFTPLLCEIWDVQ
Chain of hFXR (P19793 whole entry partner): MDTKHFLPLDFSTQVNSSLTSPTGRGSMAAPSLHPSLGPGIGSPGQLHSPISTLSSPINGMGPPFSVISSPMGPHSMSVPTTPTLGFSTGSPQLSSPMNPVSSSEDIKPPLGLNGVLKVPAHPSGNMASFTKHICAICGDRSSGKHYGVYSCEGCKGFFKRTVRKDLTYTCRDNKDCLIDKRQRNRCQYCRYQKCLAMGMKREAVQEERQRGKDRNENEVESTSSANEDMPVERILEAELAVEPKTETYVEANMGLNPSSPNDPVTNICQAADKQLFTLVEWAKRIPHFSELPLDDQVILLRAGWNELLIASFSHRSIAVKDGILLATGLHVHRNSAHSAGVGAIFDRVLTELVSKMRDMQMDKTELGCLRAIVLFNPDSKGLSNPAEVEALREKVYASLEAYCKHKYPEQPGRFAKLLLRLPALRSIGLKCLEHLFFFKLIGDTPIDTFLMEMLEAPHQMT

Row | EC50 | Structure (SMILES)
1 | ≤ 1 µM | COC(=O)c1ccc2c(N(Cc3ccc(-c4ccc(OC(F)(F)F)c(Cl)c4)cc3)C(=O)CC(C)(C)C)nccc2c1 [Compound 41, Methyl 1-(N-((3′-chloro-4′-(trifluoromethoxy)-[1,1′-biphenyl]-4-yl)methyl)-3,3-dimethylbutanamido)isoquinoline-6-carboxylate]
2 | ≤ 1 µM | COC(=O)c1ccc2c(N(Cc3ccc(-c4ccc(OC)c(C)c4)cc3)C(=O)CCC(C)(C)C)nccc2c1 [Compound 76, Methyl 1-(N-((4′-methoxy-3′-methyl-[1,1′-biphenyl]-4-yl)methyl)-4,4-dimethylpentanamido)isoquinoline-6-carboxylate]
3 | ≥ 10 µM | COC(=O)c1ccc2ccc(N(Cc3ccc(-c4ccc(N(C)C)cc4)cc3)C(=O)C3CCCCC3)cc2c1 [Compound 15, Methyl 7-(N-((4′-(dimethylamino)-[1,1′-biphenyl]-4-yl)methyl)cyclohexanecarboxamido)-2-naphthoate]
4 | 1 to 10 µM | COC(=O)/C=C/c1ccnc(N(Cc2ccc(-c3ccc(N(C)C)nc3)cc2)C(=O)C2CCCCC2)c1 [Compound 5, (E)-Methyl 3-(2-(N-(4-(6-(dimethylamino)pyridin-3-yl)benzyl)cyclohexane-carboxamido)pyridin-4-yl)acrylate]
5 | ≥ 10 µM | COC(=O)c1ccc2c(N(Cc3ccc(-c4ccc(OC)c(C)c4)cc3)C(=O)CCCCO)nccc2c1 [Compound 86, Methyl 1-(5-hydroxy-N-((4′-methoxy-3′-methyl-[1,1-biphenyl]-4-yl)methyl)pentanamido) isoquinoline-6-carboxylate]
6 | ≥ 10 µM | COC(=O)c1cc(N(Cc2ccc(-c3ccc(N(C)C)cc3)cc2)C(=O)C2CCCCC2)c2ccccc2c1 [Compound 16, Methyl 4-(N-((4′-(dimethylamino)-[1,1′-biphenyl]-4-yl)methyl)cyclohexanecarboxamido)-2-naphthoate]
7 | ≤ 1 µM | COC(=O)c1ccc2c(N(Cc3ccc(-c4ccc(N(C)C)nc4)cc3)C(=O)CC(C)(C)C)nccc2c1 [Compound 38, Methyl 1-(N-(4-(6-(dimethylamino)pyridin-3-yl)benzyl)-3,3-dimethylbutanamido)isoquinoline-6-carboxylate]
8 | 1 to 10 µM | COC(=O)c1cc2cccc(N(Cc3ccc(-c4ccc(N(C)C)cc4)cc3)C(=O)C3CCCCC3)c2s1 [Compound 12, Methyl 7-(N-((4′-(dimethylamino)-[1,1′-biphenyl]-4-yl)methyl)cyclohexanecarboxamido) benzo[b]thiophene-2-carboxylate]
9 | 1 to 10 µM | COC(=O)c1ccc2c(N(Cc3ccc(-c4ccc(OC)c(C#N)c4)cc3)C(=O)[C@H]3CC[C@H](O)CC3)nccc2c1 [Compound 67, Methyl 1-(trans-N-((3′-cyano-4′-methoxy-[1,1′-biphenyl]-4-yl)methyl)-4-hydroxycyclohexanecarboxamido) isoquinoline-6-carboxylate]
10 | 1 to 10 µM | CCOC(=O)c1cnc2c(N(Cc3ccc(-c4ccc(N(C)C)cc4)cc3)C(=O)C3CCCCC3)cccc2c1 [Compound 14, Ethyl 8-(N-((4′-(dimethylamino)-[1,1′-biphenyl]-4-yl)methyl)cyclohexanecarboxamido) quinoline-3-carboxylate]
11 | ≤ 1 µM | COc1ccc([C@H]2CC[C@H](CN(C(=O)CC(C)(C)C)c3nccc4cc(C(=O)OC(C)C)ccc34)CC2)cc1C [Compound 87, Isopropyl 1-(N-((trans-4-(4-methoxy-3-methylphenyl)cyclohexyl)methyl)-3,3-dimethylbutanamido)isoquinoline-6-carboxylate]
12 | ≤ 1 µM | CCOC(=O)c1ccc2c(N(Cc3ccc(-c4ccc(OC)c(C)c4)cc3)C(=O)C3CCCCC3)nccc2c1 [Compound 21, Ethyl 1-(N-((4′-methoxy-3′-methyl-[1,1′-biphenyl]-4-yl)methyl)cyclohexanecarboxamido) isoquinoline-6-carboxylate]
13 | ≤ 1 µM | COC(=O)c1ccc2c(N(Cc3ccc(-c4ccc(OC)c(C)c4)cc3)C(=O)CC(C)C)nccc2c1 [Compound 70, Methyl 1-(N-((4′-methoxy-3′-methyl-[1,1′-biphenyl]-4-yl)methyl)-3-methylbutanamido)isoquinoline-6-carboxylate]
14 | ≤ 1 µM | COC(=O)c1ccc2c(N(C[C@H]3CC[C@H](c4ccc(OC)c(C)c4)CC3)C(=O)[C@H]3CC[C@H](O)CC3)nccc2c1 [Compound 99, Methyl 1-(trans-4-hydroxy-N-((trans-4-(4-methoxy-3-methylphenyl)cyclohexyl)methyl)cyclohexanecarboxamido) isoquinoline-6-carboxylate]
15 | ≤ 1 µM | COC(=O)c1ccc2c(N(Cc3ccc(-c4ccc(OC)c(Cl)c4)cc3)C(=O)[C@H]3CC[C@H](O)CC3)nccc2c1 [Compound 66, Methyl 1-(trans-N-((3′-chloro-4′-methoxy-[1,1′-biphenyl]-4-yl)methyl)-4-hydroxycyclohexanecarboxamido) isoquinoline-6-carboxylate]
16 | 1 to 10 µM | COC(=O)c1ccc2c(N(Cc3ccc(-c4ccc(F)c(OC)c4)cc3)C(=O)CC(C)(C)C)nccc2c1 [Compound 54, Methyl 1-(N-((4′-fluoro-3′-methoxy-[1,1′-biphenyl]-4-yl)methyl)-3,3-dimethylbutanamido)isoquinoline-6-carboxylate]
17 | ≤ 1 µM | CCCCC(=O)N(Cc1ccc(-c2ccc(OC)c(C)c2)cc1)c1nccc2cc(C(=O)OC)ccc12 [Compound 81, Methyl 1-(N-((4′-methoxy-3′-methyl-[1,1′-biphenyl]-4-yl)methyl)pentanamido) isoquinoline-6-carboxylate]
18 | 1 to 10 µM | COC(=O)c1ccc2c(N(Cc3ccc(-c4ccc(OC)c(C)c4)cc3)C(=O)CC3CCCCC3)nccc2c1 [Compound 74, Methyl 1-(2-cyclohexyl-N-((4′-methoxy-3′-methyl-[1,1′-biphenyl]-4-yl)methyl)acetamido)isoquinoline-6-carboxylate]
19 | ≤ 1 µM | CCc1ccc(-c2ccc(CN(C(=O)CC(C)(C)C)c3nccc4cc(C(=O)OC)ccc34)cc2)cc1 [Compound 53, Methyl 1-(N-((4′-ethyl-[1,1′-biphenyl]-4-yl)methyl)-3,3-dimethylbutanamido)isoquinoline-6-carboxylate]
20 | ≤ 1 µM | COC(=O)c1ccc2c(N(C[C@H]3CC[C@H](c4cccc(C)c4)CC3)C(=O)CC(C)(C)C)nccc2c1 [Compound 90, Methyl 1-(3,3-dimethyl-N-((trans-4-(m-tolyl)cyclohexyl)methyl)butanamido)isoquinoline-6-carboxylate]
21 | 1 to 10 µM | COc1ccc(-c2ccc(CN(C(=O)CC(C)(C)C)c3nccc4cc(/C=C/C(=O)O)ccc34)cc2)cc1C [Compound 103, (E)-3-(1-(N-((4′-Methoxy-3′-methyl-[1,1′-biphenyl]-4-yl)methyl)-3,3-dimethylbutanamido)isoquinolin-6-yl)acrylic Acid]
22 | 1 to 10 µM | COC(=O)c1ccc2c(N(Cc3ccc(-c4ccc(OCCO)cc4)cc3)C(=O)CC(C)(C)C)nccc2c1 [Compound 60, Methyl 1-(N′-((4′-(2-hydroxyethoxy)-[1,1′-biphenyl]-4-yl)methyl)-3,3-dimethylbutanamido)isoquinoline-6-carboxylate]
23 | ≤ 1 µM | CCCC(=O)N(Cc1ccc(-c2ccc(OC)c(C)c2)cc1)c1nccc2cc(C(=O)OC)ccc12 [Compound 82, Methyl 1-(N-((4′-methoxy-3′-methyl-[1,1′-biphenyl]-4-yl)methyl)butyramido)isoquinoline-6-carboxylate]
24 | ≤ 1 µM | COC(=O)c1ccc2c(N(Cc3ccc(-c4ccc(N(C)C)cc4)cc3)C(=O)C3CCCCC3)nccc2c1 [Compound 13, Methyl 1-(N-((4′-(dimethylamino)-[1,1′-biphenyl]-4-yl)methyl)cyclohexanecarboxamido) isoquinoline-6-carboxylate]
25 | ≤ 1 µM | COC(=O)c1ccc2c(N(Cc3ccc(-c4cnc(OC)c(C)c4)cc3)C(=O)CC(C)(C)C)nccc2c1 [Compound 37, Methyl 1-(N-(4-(6-methoxy-5-methylpyridin-3-yl)benzyl)-3,3-dimethylbutanamido)isoquinoline-6-carboxylate]
26 | ≤ 1 µM | COC(=O)c1ccc2c(N(Cc3ccc(-c4ccc5c(c4)OCC5)cc3)C(=O)CC(C)(C)C)nccc2c1 [Compound 47, Methyl 1-(N-(4-(2,3-dihydrobenzofuran-6-yl)benzyl)-3,3-dimethylbutanamido)isoquinoline-6-carboxylate]
27 | ≤ 1 µM | COC(=O)c1ccc2c(N(Cc3ccc(-c4ccc(OC)c(C)c4)cc3)C(=O)c3ccccc3)nccc2c1 [Compound 73, Methyl 1-(N-((4′-methoxy-3′-methyl-[1,1′-biphenyl]-4-yl)methyl)benzamido)isoquinoline-6-carboxylate]
28 | 1 to 10 µM | COC(=O)c1ccc2c(N(Cc3ccc(-c4ccc(OC(F)F)cc4)cc3)C(=O)CC(C)(C)C)nccc2c1 [Compound 57, Methyl 1-(N-((4′-(difluoromethoxy)-[1,1′-biphenyl]-4-yl)methyl)-3,3-dirnethylbutanamido)isoquinoline-6-carboxylate]

Row | Structure (SMILES) | EC50
29 | COC(=O)c1ccc2c(N(Cc3ccc(-c4ccc5c(c4)CCN5C(=O)OC(C)(C)C)cc3)C(=O)CC(C)(C)C)nccc2c1 [Compound 51, Methyl 1-(N-(4-(1-(tert-butoxycarbonyl)indolin-5-yl)benzyl)-3,3-dimethylbutanamido)isoquinoline-6-carboxylate] | ≥ 10 µM
